Values after ≈ are worked out from the molar mass of the structure shown.
Experiments:
M. luteus [1] = assay: Biofilm inhibition assay (crystal violet); type: cell-based, Micrococcus luteus; details: 31.25 µg/mL
Description: (§1) In a 96-well plate, biofilm grown cultures of M. hydrocarbonoclasticus and C. marina were incubated with napyradiomycins (1–12) at a concentration of 31.25 µg/mL. After discarding the media, biofilm inhibition was determined from OD600 measurements of crystal violet stained cells resuspended from the plate bottom with acetic acid.
(§2) Five marine bacterial species were used as models to assess antimicrofouling activity. The biofilm-forming marine bacteria Marinobacter hydrocarbonoclasticus DSM 8798 (ATCC 49840), Cobetia marina DSM 4741, Phaeobacter inhibens DSM 17,395, and Pseusooceanicola batsensis DSM 15,984 were obtained from DSMZ (Leibniz Institute DSMZ—German collection of Microorganisms and Cell Cultures) and Micrococcus luteus. Cultures were routinely grown in liquid marine broth (Carl Roth GmbH, Karlsruhe, Germany) with agitation (180 rpm) or on agar-supplemented marine broth, at 28 °C (M. hydrocarbonoclasticus and C. marina) or 30 °C (P. inhibens and P. batsensis). M. luteus was maintained in Brain Heart Infusion broth (BHI, Becton Dickinson, GmbH, Heidelberg, Germany) with agitation (180 rpm) or on agar-supplemented BHI, at 37 °C.
(§3) The antibiofilm activity of napyradiomycins (1–12) against the five marine bacterial species was assessed in 96-well polystyrene flat bottom microplates (Nunclon Delta Surface, Thermo Scientific, Roskilde, Denmark) as previously reported. For initial screening, bacterial overnight cultures were diluted to an optical density (OD600nm) value of 0.2 and incubated statically at 28 °C (M. hydrocarbonoclasticus, C. marina), 30 °C (P. inhibens, P. batsensis) or 37 °C (M. luteus) in the 96-well microplate in the presence or absence of 31.25 µg/mL of napyradiomycins, solubilized in DMSO. After 24 h (M. hydrocarbonoclasticus, C. marina) or 48 h (P. batsensis, P. inhibens, M. luteus) incubation, the OD600nm was determined. The planktonic cells and media were discarded, and the wells were washed twice with deionized water. The biofilm was fixed for 1 h at 60 °C and stained with crystal violet 0.06% for 10 min. The dye was discarded, and the wells were again washed twice with deionized water. The stained biofilm was solubilized with 30% acetic acid and the OD600nm was determined. […] The percentage of biofilm inhibition was calculated as the amount of biofilm relative to that of the bacterial species without added compounds (with the same amount of DMSO added). CuSO4 (5 μM), a potent antifouling agent used in antifouling paints, was used as reference.
(§4) All assays were performed in triplicate, and results are representative of the average and standard error of the mean (SEM). Statistical analysis was performed in GraphPad Prism 8.0.2, using one-way ANOVA followed by a Dunnett’s multiple comparisons test against the control (species grown with the same amount of DMSO added).

M. hydrocarbonoclasticus [2] = assay: Biofilm inhibition assay (crystal violet); type: cell-based, Marinobacter hydrocarbonoclasticus; details: Marinobacter nauticus
Description: as §1, §2, §3, §4

P. inhibens [3] = assay: Bacterial growth inhibition assay (OD600nm); type: cell-based, Phaeobacter inhibens; details: 31.25 µg/mL
Description: (§5) As a first screening approach, liquid cultures of M. hydrocarbonoclasticus, and C. marina in a 96-well format were analyzed for bacterial growth inhibition by percent decrease in OD600 after incubation with napyradiomycins (1–12) at 31.25 µg/mL.
Five marine bacterial species were used as models to assess antimicrofouling activity. The biofilm-forming marine bacteria Marinobacter hydrocarbonoclasticus DSM 8798 (ATCC 49840), Cobetia marina DSM 4741, Phaeobacter inhibens DSM 17,395, and Pseusooceanicola batsensis DSM 15,984 were obtained from DSMZ (Leibniz Institute DSMZ—German collection of Microorganisms and Cell Cultures) and Micrococcus luteus. […]
The antibacterial activity of the napyradiomycins (1–12) was assessed in 96-well polystyrene flat bottom microplates (Nunclon Delta Surface, Thermo Scientific, Roskilde, Denmark) following previously reported procedures. […] After 24 h (M. hydrocarbonoclasticus, C. marina) or 48 h (P. batsensis, P. inhibens, M. luteus) incubation, the OD600nm was determined (Molecular Devices, Spectra Max 190). […] The percentage of growth inhibition was calculated as the amount of growth relative to that of the bacterial species without added compounds (with the same amount of DMSO added). […]

P. batsensis [4] = assay: Biofilm inhibition assay (crystal violet); type: cell-based, Pseudooceanicola batsensis; details: 31.25 µg/mL
Description: as §1, §2, §3, §4

C. marina [5] = assay: Biofilm inhibition assay (crystal violet); type: cell-based, Cobetia marina; details: 31.25 µg/mL
Description: as §1, §2, §3, §4

C. marina [6] = assay: Bacterial growth inhibition assay (OD600nm); type: cell-based, Cobetia marina; details: 31.25 µg/mL
Excerpt: as §2
(§6) The antibacterial activity of the napyradiomycins (1–12) was assessed in 96-well polystyrene flat bottom microplates (Nunclon Delta Surface, Thermo Scientific, Roskilde, Denmark) following previously reported procedures. […] After 24 h (M. hydrocarbonoclasticus, C. marina) or 48 h (P. batsensis, P. inhibens, M. luteus) incubation, the OD600nm was determined (Molecular Devices, Spectra Max 190). […] The percentage of growth inhibition was calculated as the amount of growth relative to that of the bacterial species without added compounds (with the same amount of DMSO added). CuSO4 (5 μM), a potent antifouling agent used in antifouling paints, was used as reference.
as §4, with “8.0.2 (San Diego, CA, USA),” for “8.0.2,”

M. luteus [7] = assay: Bacterial growth inhibition assay (OD600nm); type: cell-based, Micrococcus luteus; details: 31.25 µg/mL
Excerpt: as §2, §6
as §4, with “8.0.2 (San Diego, CA, USA),” for “8.0.2,”

[8] = Mussel plantigrade larvae settlement, 15 h acute exposure assay; type: in vivo; details: Mytilus galloprovincialis (mussel, plantigrade larvae), in vivo, no mortality at highest tested concentration 12 µg/mL
Description: (§7) Mussel (M. galloprovincialis) adhesive larvae (plantigrades) were used to assess in vivo the antifouling activity of napyradiomycins (1–12) towards macrofouling. Juvenile mussel aggregates were collected at the intertidal rocky shore during low spring tides, at Memória beach, Matosinhos, Portugal (41°13′59″ N; 8°43′28″ W). At the laboratory, immediately before the bioassays, mussel plantigrade larvae were screened and isolated from the juvenile aggregates using a binocular microscope (Olympus SZX2-ILLT, Hamburg, Germany) and washed with filtered seawater to remove organic debris. Only competent plantigrade larvae (those showing foot exploratory behavior) were selected and used in the exposure bioassays following previously validated procedures. Plantigrades were exposed in 24-well polystyrene plates for 15 h in the darkness at 18 °C. DMSO was used as solvent for crude extracts, fractions and pure compounds stock and working solutions. Working solutions were prepared by successive dilutions of stock solutions in DMSO and then diluted in filtered seawater to obtain the test solutions. DMSO concentration in test solutions was always 0.1%. Four well replicates were used per condition with five larvae per well. Two negative controls, one with ultra-pure water and the other with DMSO 0.1% were included in all bioassays, as well as a positive control with 5 μM CuSO4 (a potent antifouling agent). Anti-settlement bioactivity was determined by the presence/absence of fixed byssal threads produced by each individual larvae for all the conditions tested. […] Chi-square Pearsons goodness-of-fit test was applied to data in order to determine EC50. Significance was considered at p < 0.01 for all analyses, and 95% lower and upper confidence limits [95% LCL; UCL] were presented. Therapeutic ratio (LC50/EC50) was used to evaluate the effectiveness vs. toxicity of compounds [19, 21].

[9] = system: M. galloprovincialis plantigrade larvae; assay: as above; type: in vivo; details: Mytilus galloprovincialis, 15 h, 95% LCL, UCL in brackets, read-out: EC50 [Conf. limits] larval settlement
Description: as §7

P. batsensis [10] = assay: Bacterial growth inhibition assay (OD600nm); type: cell-based, Pseudooceanicola batsensis; details: 31.25 µg/mL
Description: as §5, §2
(§8) The antibacterial activity of the napyradiomycins (1–12) was assessed in 96-well polystyrene flat bottom microplates (Nunclon Delta Surface, Thermo Scientific, Roskilde, Denmark) following previously reported procedures. For initial screening, bacterial overnight cultures were diluted to an optical density (OD600nm) of 0.2 and incubated statically at 28 °C (M. hydrocarbonoclasticus, C. marina), 30 °C (P. inhibens, P. batsensis) or 37 °C (M. luteus) in a 96-well microplate in the presence or absence of 31.25 µg/mL of the napyradiomycins, solubilized in DMSO. After 24 h (M. hydrocarbonoclasticus, C. marina) or 48 h (P. batsensis, P. inhibens, M. luteus) incubation, the OD600nm was determined (Molecular Devices, Spectra Max 190). […] The percentage of growth inhibition was calculated as the amount of growth relative to that of the bacterial species without added compounds (with the same amount of DMSO added). CuSO4 (5 μM), a potent antifouling agent used in antifouling paints, was used as reference.
as §4, with “8.0.2 (San Diego, CA, USA),” for “8.0.2,”

M. hydrocarbonoclasticus [11] = assay: Bacterial growth inhibition assay (OD600nm); type: cell-based, Marinobacter hydrocarbonoclasticus; details: 31.25 µg/mL
Description: as §5, §2, §8
as §4, with “8.0.2 (San Diego, CA, USA),” for “8.0.2,”

P. inhibens [12] = assay: Biofilm inhibition assay (crystal violet); type: cell-based, Phaeobacter inhibens; details: 31.25 µg/mL
Description: as §1, §2, §3
All assays were performed in triplicate, and results are representative of the average and standard error of the mean (SEM). […]

M. edulis = system: M. edulis; parameters: method as in doi:10.1016/S0044-8486(97)00209-3; details: against M. edulis ref 62; cited from earlier work

| Molecule | % Biofilm Inhibition ± SEM M. luteus (M. luteus [1]) | inhibition at 0.98 µg/mL (M. hydrocarbonoclasticus [2]; 0.98 µg/mL, read-out: % inhibition of biofilm formation M. hydro.) [%] | inhibition at 1.95 µg/mL (M. hydrocarbonoclasticus [2]; 1.95 µg/mL, read-out: % inhibition of biofilm formation M. hydro.) [%] | inhibition at 15.6 µg/mL (M. hydrocarbonoclasticus [2]; 15.6 µg/mL, read-out: % inhibition of biofilm formation M. hydro.) [%] | inhibition at 31.25 µg/mL (M. hydrocarbonoclasticus [2]; 31.25 µg/mL, read-out: % Biofilm Inhibition ± SEM M. hydrocarbonoclasticus) [%] | % growth inhibition P. inhibens (P. inhibens [3]) | % Biofilm Inhibition ± SEM P. batsensis (P. batsensis [4]) | % Biofilm Inhibition ± SEM C. marina (C. marina [5]) | % growth inhibition C. marina (C. marina [6]) | % growth inhibition M. luteus (M. luteus [7]) | LC50 at 15 h [8] [µg/mL] | EC50 [9] [µg/mL] | % growth inhibition P. batsensis (P. batsensis [10]) | % growth inhibition M. hydrocarbonoclasticus (M. hydrocarbonoclasticus [11]) | % Biofilm Inhibition ± SEM P. inhibens (P. inhibens [12]) | EC50 (M. edulis) [µg/mL] |
| --- | --- | --- | --- | --- | --- | --- | --- | --- | --- | --- | --- | --- | --- | --- | --- | --- |
| CC(=CCCC(C)=CCC12OC(C)(C)C(Cl)CC1(Cl)C(=O)c1c(O)cc(O)cc1C2=O)CO (stereo not shown) [Napyradiomycin 2, 18-hydroxynapyradiomycin A1] | N.I. | 24.6 ± 9.8 | 56.5 ± 5.7 | 56.6 ± 0.9 | 60.2 ± 5.7 | did not inhibit growth | N.I. | N.I. | did not inhibit growth | did not inhibit growth | > 12 | 2 (≈ 4.02 µM) | did not inhibit growth | did not inhibit growth | N.I. | – |
| ivermectin | – | – | – | – | – | – | – | – | – | – | – | – | – | – | – | 0.4 |
